Test results as given in US10266520B2, “Bisamidinium-based inhibitors for the treatment of myotonic dystrophy” (The Board of Trustees of the University of Illinois, priority 2014, dated 2019).

How the values were obtained:
[1] = test system: Drosophila flies (gmr-GAL4>UAS-i(CTG)480; CTG60 control); experiment: Rough eye phenotype in DM1 Drosophila model; type: in vivo; settings: for eye structure of control flies: 400 μM, CTG60 Drosophila flies
Protocol: (§1) FIG. 4A-C. Efficacy of 1a and 2a in DM1 Drosophilia fly mode. (a) Improvement in adult rough eye phenotype. Each experiment was conducted in triplicate. (b) Effect of ligands on the control Drosophilia larvae (24B−GAL4>UAS−(CTG)60). (c) Dose-dependent effect of ligands on the DM1 larvae (24B−GAL4>UAS−i(CTG)480). Each experiment was conducted in triplicate, 10 individual larvae for each trial. Error bars represent standard deviation, two tail t-test *P<0.05, **P<0.01, ***P<0.001.
(§2) Drosophila lines were cultured in standard cornmeal medium supplemented with dry yeasts. Fly lines bearing UAS-(CTG)60 and UAS-(CTG)480 were kind gifts of Prof. Rubén Artero Allepuz (Universitate de València, Estudi General, Spain). The gmr-GAL4 and […] lines were used to drive UAS transgene expression in eye and muscles respectively. Ligands 1a and 2a were dissolved in ddH2O and mixed with fly food. Genetic crosses were set up in drug-containing fly food at 21.5° C. for external eye assay, and at 25° C. for larval crawling assay.

GFP-MBNL-rCUG^exp foci = experiment: Nuclear foci disruption, FISH/confocal with GFP-MBNL1 in DM1 model HeLa cells; type: cell-based
Protocol: (§3) FIG. 2A-C. (a) Representative confocal microscope images showing the GFP-MBNL-rCUG^exp foci disruption by compounds 1a and 2a. (b) Percent of foci area per cell after treatment of ligands for 48 h. The sequestration and dispersion of endogenous MBNL under the treatment of ligand are quantitatively measured. Error bars represent standard errors of mean from at least four independent experiments, two-tail t-test *P<0.005. Note: This was a head-to-head comparison between compounds 1a and 2a. […] The difference is attributed to variability in cells and conditions. (c) Cytotoxicity profile of compound 2a.
To evaluate the ability of dimer 2a to disrupt the […] in DM1 model cells, a standard fluorescence in situ hybridization experiment using exogenous MBNL was performed (FIG. 2a) (see Jahromi et al., ACS Chem. Biol. 2013, 8, 1037-1043). Here, GFP-MBNL1 was employed because of its intense signal and ability to easily monitor the location of the MBNL1 in live cells. Thus, normal HeLa cells were transfected with a plasmid containing GFP-MBNL1. To generate DM1 model cells, these HeLa cells were also transfected with a DMPK plasmid containing (CTG)960. […] The presence of MBNL1 was indicated as a green color from GFP signal for GFP-MBNL1 (Column 2), whereas (CUG)960 was detected by a complementary sequence (CAG)10 conjugated with a Cy3 dye and represented by a red color (Column 3). […]

[2] = test system: MBNL1-rCUG^exp nuclear foci; experiment: Nuclear foci quantification with endogenous MBNL1 (immunofluorescence) in DM1 model cells; type: cell-based; settings: 48 h
Protocol: as §3
In addition, a parallel experiment using endogenous MBNL1 in place of GFP-MBNL1 was conducted to quantify foci reduction in a model that more closely resembles DM1 patient cells. The endogenous MBNL1 was detected by an immunofluorescence technique (Alexa Fluor® 488 dye-labeled antibody) (Wong et al., J. Am. Chem. Soc. 2014, 136, 6355-6361). […] Incubation of 2a at 10 μM decreased the foci area to ca. 36%, but a similar level was also observed for the 100 μM treatment. It is encouraging that dimeric ligand 2a is as active at 1 μM as monomeric ligand 1a is at 100 μM. However, the lack of an obvious dose dependence and failure to fully dissolved nuclear foci at 100 μM may indicate a cellular penetration issue for 2a. Further study is underway.
ITC, EMSA, confocal microscopy, IR splicing, and the reversal of rough-eye phenotype assays were conducted as previously described (Wong et al., J. Am. Chem. Soc. 2014, 136, 6355-6361). The cytotoxicity of 2a was accessed using a published protocol (Vichai et al., Sulforhodamine B colorimetric assay for cytotoxicity screening, Nat. Protoc. 2006, 1, 1112-1116).

[3] = test system: Drosophila larvae (24B-GAL4>UAS-i(CTG)480; (CTG)60 control); experiment: Larval crawling assay; type: in vivo; settings: for mobility of normal larvae: 400 μM in fly food, control (CTG)60 larvae
Protocol: as §1
An individual larva generated from transgenic flies was placed on a Petri dish over graph paper, and the number of grid lines crossed by the larva in 1 min was recorded.
as §2
Larval crawling assay was performed as previously described (Lanson et al., Hum. Mol. Genet. 2011, 20, 2510-2523). Ten wandering third instar larvae were washed in ddH2O and placed on a 2% agarose gel in a 15-cm Petri dish with gridlines spaced at 0.5 cm. The larvae were allowed to acclimate for a period of 1 min, and the total number of gridlines that the posterior end of the larvae passes in 1 min was determine. Each set of experiment was repeated independently for three times using larvae collected from separate genetic crosses.

| SMILES | rough eye phenotype ([1]; 50 μM in fly food, gmr-GAL4>UAS-i(CTG)480 flies) | eye structure of control flies [1] | foci dispersion (GFP-MBNL1) (GFP-MBNL-rCUG^exp foci; 1, 10, and 100 μM) | nuclear foci remained after treatment ([2]; 1 μM) | foci area after treatment ([2]; 10 μM) | improvement in the DM1 larva's mobility ([3]; 20 μM, DM1 larvae) [%] | crawling defect rescued ([3]; 100 μM, DM1 larvae) | mobility of normal larvae [3] | foci dispersion (GFP-MBNL1) (GFP-MBNL-rCUG^exp foci; 100 μM) | nuclear foci remaining / foci area ([2]; 100 μM) | crawling defect rescued ([3]; 200 μM, DM1 larvae) [%] | crawling defect rescued ([3]; 400 μM, DM1 larvae) [%] |
| --- | --- | --- | --- | --- | --- | --- | --- | --- | --- | --- | --- | --- |
| N=C(NCCCCNc1nc(N)nc(N)n1)c1ccc(C(=N)NCCCCNc2nc(N)nc(NCCCn3cc(CNc4nc(N)nc(NCCCCNC(=N)c5ccc(C(=N)NCCCCNc6nc(N)nc(N)n6)cc5)n4)nn3)n2)cc1 [Compound 2a] | partial reversal of rough eye phenotypes | did not change the fly's eye structure | foci dispersion was observed | approximately 72% | ca. 36% | 37 | nearly full recovered | the mobility is not affected |  |  |  |  |
| N=C(NCCCCNc1nc(N)nc(N)n1)c1ccc(C(=N)NCCCCNc2nc(N)nc(N)n2)cc1 [Compound 1a] |  | did not change the fly's eye structure |  |  |  |  | ca. 14% | the mobility is not affected | foci dispersion was observed | ca. 90% | ~54 | ~84 |
